These results are taken from article PMC7998669, “7-(2-Anilinopyrimidin-4-yl)-1-benzazepin-2-ones Designed by a “Cut and Glue” Strategy Are Dual Aurora A/VEGF-R Kinase Inhibitors” (Molecules, 2021).

The subject of this test is COLO 205. In words: NCI cancer cell line screen (sulforhodamin B). Conditions: Homo sapiens; COLO 205, Colon; 48 h; read-out: log10 GI50 (converted). The format is cell-based. Summed up:
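Antiproliferative effect measured as sulforhodamine B protein staining after 48 h treatment, normalised to untreated cells.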

For orientation: GI50 means the concentration at which growth is held to half of that of the control. As to `COc1ccc(Nc2nccc(-c3ccc4c(c3)CCCC(=O)N4)n2)cc1O` [Compound 2n, 7-[2-(3-Hydroxy-4-methoxyanilino)pyrimidin-4-yl]-1,3,4,5-tetrahydro-2H-1-benzazepin-2-one], the 50% growth inhibitory concentration (GI50) was 26.3 µM.
